Results reported in patent US11851426B2, “Bicyclic amines as CDK2 inhibitors” (Incyte Corporation, priority 2019, dated 2023).

Biological target: CDK2/Cyclin E1 (Homo sapiens (Human), UniProt P24941)
Experiment: CDK2/Cyclin E1 HTRF enzyme activity assay
Assay type: biochemical
Details: 1 mM ATP; CDK2/Cyclin E1 0.25 nM; 60 minutes at room temperature
Protocol: Example A. CDK2/Cyclin E1 HTRF Enzyme Activity Assay
CDK2/Cyclin E1 enzyme activity assays utilize full-length human CDK2 co-expressed as N-terminal GST-tagged protein with FLAG-Cyclin E1 in a baculovirus expression system (Carna Product Number 04-165). Assays were conducted in white 384-well polystyrene plates in a final reaction volume of 8 μL. CDK2/Cyclin E1 (0.25 nM) was incubated with the compounds of the Examples (40 nL serially diluted in DMSO) in the presence of ATP (50 μM or 1 mM) and 50 nM ULight™-labeled eIF4E-binding protein 1 (THR37/46) peptide (PerkinElmer) in assay buffer (containing 50 mM HEPES pH 7.5, 1 mM EGTA, 10 mM MgCl2, 2 mM DTT, 0.05 mg/mL BSA, and 0.01% Tween 20) for 60 minutes at room temperature. The reactions were stopped by the addition of EDTA and Europium-labeled anti-phospho-4E-BP1 antibody (PerkinElmer), for a final concentration of 15 mM and 1.5 nM, respectively. HTRF signals were read after 1 hour at room temperature on a PHERAstar FS plate reader (BMG Labtech). Data was analyzed with IDBS XLFit and GraphPad Prism 5.0 software using a three or four parameter dose response curve to determine IC50 for each compound.

| SMILES | IC50 |
| --- | --- |
| CCOc1c(-c2cn[nH]c2)ccn2nc(N[C@H]3CCN(S(=O)(=O)CCCN4CCCCC4)C[C@H]3C)nc12 [Example 27, 8-ethoxy-N-((3R,4S)-3-methyl-1-((3-(piperidin-1-yl)propyl)sulfonyl)piperidin-4-yl)-7-(1H-pyrazol-4-yl)-[1,2,4]triazolo[1,5-a]pyridin-2-amine] | ≤ 20 nM |
| CC1CCN(c2c(-c3cn[nH]c3)ncn3nc(NC4CCN(S(C)(=O)=O)CC4)nc23)CC1 [Example 34, 8-(4-methylpiperidin-1-yl)-N-(1-(methylsulfonyl)piperidin-4-yl)-7-(1H-pyrazol-4-yl)-[1,2,4]triazolo[1,5-c]pyrimidin-2-amine] | ≤ 20 nM |
| CCN(C)CCCCS(=O)(=O)N1CC[C@H](Nc2nc3c(OC(C)C)c(-c4cn[nH]c4)ncn3n2)[C@H](C)C1 [Example 65, N-((3R,4S)-1-((4-(Ethyl(methyl)amino)butyl)sulfonyl)-3-methylpiperidin-4-yl)-8-isopropoxy-7-(1H-pyrazol-4-yl)-[1,2,4]triazolo[1,5-c]pyrimidin-2-amine] | ≤ 20 nM |
| CS(=O)(=O)N1CCC(Nc2nc3c(N4CCCCC4)c(-c4cn[nH]c4)ncn3n2)CC1 [Example 49, N-(1-(Methylsulfonyl)piperidin-4-yl)-8-(piperidin-1-yl)-7-(1H-pyrazol-4-yl)-[1,2,4]triazolo[1,5-c]pyrimidin-2-amine] | ≤ 20 nM |
| CS(=O)(=O)N1CCC(Nc2nc3cnc(-c4cn[nH]c4)c(N4CCCCC4)n3n2)CC1 [Example 126, N-(1-(Methylsulfonyl)piperidin-4-yl)-5-(piperidin-1-yl)-6-(1H-pyrazol-4-yl)-[1,2,4]triazolo[1,5-a]pyrazin-2-amine] | ≤ 20 nM |
| CCS(=O)(=O)N1CC[C@H](Nc2nc3c(OC(C)C)c(-c4cn[nH]c4)ncn3n2)[C@H](C)C1 [Example 54, N-((3R,4S)-1-(Ethylsulfonyl)-3-methylpiperidin-4-yl)-8-isopropoxy-7-(1H-pyrazol-4-yl)-[1,2,4]triazolo[1,5-c]pyrimidin-2-amine] | ≤ 20 nM |
| CCCOc1c(-c2cn[nH]c2)ccc2nc(NC3CCN(S(C)(=O)=O)CC3)nn12 [Example 78, N-(1-(Methylsulfonyl)piperidin-4-yl)-5-propoxy-6-(1H-pyrazol-4-yl)-[1,2,4]triazolo[1,5-a]pyridin-2-amine] | ≤ 20 nM |
| CS(=O)(=O)N1CCC(Nc2nc3c(OCC4CCOC4)c(-c4cn[nH]c4)ccn3n2)CC1 (stereo not drawn) [Example 11, N-(1-(methylsulfonyl)piperidin-4-yl)-7-(1H-pyrazol-4-yl)-8-((tetrahydrofuran-3-yl)methoxy)-[1,2,4]triazolo[1,5-a]pyridin-2-amine] | ≤ 20 nM |
| CC(C)COc1c(-c2cn[nH]c2)ncc2nc(NC3CCN(S(C)(=O)=O)CC3)nn12 [Example 104, 5-Isobutoxy-N-(1-(methylsulfonyl)piperidin-4-yl)-6-(1H-pyrazol-4-yl)-[1,2,4]triazolo[1,5-a]pyrazin-2-amine] | ≤ 20 nM |
| CC(C)COc1c(-c2cn[nH]c2)ccc2nc(NC3CCN(S(C)(=O)=O)CC3)nn12 [Example 79, 5-Isobutoxy-N-(1-(methylsulfonyl)piperidin-4-yl)-6-(1H-pyrazol-4-yl)-[1,2,4]triazolo[1,5-a]pyridin-2-amine] | ≤ 20 nM |
| CCS(=O)(=O)N1CC[C@H](Nc2nc3ccc(-c4cn[nH]c4)c(N4CCCCC4)n3n2)[C@H](C)C1 [Example 84, N-((3R,4S)-1-(Ethylsulfonyl)-3-methylpiperidin-4-yl)-5-(piperidin-1-yl)-6-(1H-pyrazol-4-yl)-[1,2,4]triazolo[1,5-a]pyridin-2-amine] | ≤ 20 nM |
| CCCOc1c(-c2cn[nH]c2)ncc2nc(N[C@H]3CCN(S(C)(=O)=O)C[C@H]3C)nn12 [Example 102, N-((3R,4S)-3-Methyl-1-(methylsulfonyl)piperidin-4-yl)-5-propoxy-6-(1H-pyrazol-4-yl)-[1,2,4]triazolo[1,5-a]pyrazin-2-amine] | ≤ 20 nM |
